Patent publication US20090022803A1, “Oral Formulations For Delivery of Catecholic Butanes Including Ndga Compounds” (priority 2005, published 2009)
Where two headings read alike, the source gives them in different places.

Type: physicochemical
Conditions: for Dissolution After Heating: 90° C.
Procedure: A 10 mL solution of M4N at a concentration of about 10 mg/mL in 40% BP-β-CD was made as follows. About 10 mL of the 40% HP-β-CD solution were added to a glass beaker containing a stir bar. The beaker was placed on a magnetic plate and the stir bar was set to stir at medium speed. About […] of M4N were slowly added to the 40% HP-β-CD in the center of the beaker with the aid of a spatula. The M4N/40% HP-β-CD mixture was stirred for 2 hr or until all M4N was uniformly suspended without any clumps being present. The M4N/40% HP-β-CD mixture was optionally heated at 80° C. for about 30 min. (or longer if a larger volume of solution was desired, for example, 1 hr at 80° C. for 100 mL of the M4N/HP-β-CD mixture), or longer as needed to ensure complete dissolution of M4N. […] The final M4N/40% HP-β-CD solution was stored at room temperature and was kept protected from light. This process may be scaled up or down to obtain the requisite volume or concentration of M4N. Formulations containing M4N in other cyclodextrin solutions may be similarly made, such as, for example, by substituting HP-β-CD in the process described above with other cyclodextrins. […]
A 10 mL solution of M4N at a concentration of about 10 mg/mL in 50% HP-β-CD/0.5% HPMC was made as follows. About 10 mL of the 50% HP-β-CD/0.5% HPMC solution were added to a glass beaker containing a stir bar. The beaker was placed on a magnetic plate and the stir bar was set to stir at medium speed. About 100 mg of M4N were slowly added to the 50% HP-β-CD/0.5% HPMC in the center of the beaker with the aid of a spatula. The M4N/50% HP-β-CD/0.5% HPMC mixture was stirred for 24 hr or until all M4N was uniformly suspended without any clumps being present. The M4N/50% HP-β-CD/0.5% HPMC mixture was heated at about 90° C. for about 30 min. (or longer if a larger volume of solution was desired, for example, 1 hr at 90° C. for 500 mL of the M4N/50% HP-β-CD/0.5% HPMC mixture), or longer as needed to ensure complete dissolution of M4N. […] The final M4N/50% HP-β-CD/0.5% HPMC solution was stored at room temperature and was kept protected from light.
A 10 mL solution of M4N at a concentration of about 20 mg/mL in 5% EC (w/v) (the “EC formulation”) was made as follows. About 10 mL of 5% EC formulation, made as described above, were added to a glass beaker containing a stir bar. The beaker was placed on a magnetic plate and the stir bar was set to stir at medium speed, and covered with a round Teflon® cover. About 200 mg of M4N were slowly added to the 5% EC formulation in the center of the beaker with the aid of a spatula to prevent M4N from sticking to the beaker wall. The M4N/EC mixture was stirred for 2 hr or until all M4N had dissolved or was uniformly suspended without any clumps being present. The M4N/EC mixture was heated at about 60° C. for about 30 min. (or longer if a larger volume of solution was desired, for example, 1 hr at 60° C. for 500 mL of the M4N/EC mixture), or longer as needed to ensure complete dissolution of M4N. […] The final M4N/EC solution was stored at room temperature and was kept protected from light.
A 10 mL solution of M4N at a concentration of about 50 mg/mL in sesame oil was made as follows. About 10 mL of sesame oil were added to a glass beaker containing a stir bar. The beaker was placed on a magnetic plate and the stir bar was set to stir at medium speed. About 500 mg of M4N were slowly added to the sesame oil in the center of the beaker with the aid of a spatula to prevent M4N from sticking to the beaker wall. The M4N/sesame oil mixture was stirred for about 2 hr or until all M4N had dissolved or was uniformly suspended without any clump being present. The M4N/sesame oil mixture was heated at about 60° C. for about 30 min. (or longer if a larger volume of solution was desired, for example, 1 hr at 60° C. for 500 mL of the M4N/sesame oil mixture), or longer as need to ensure complete dissolution of M4N. […]

[1] = M4N 1 mg/mL in 40% HP-β-CD, 1% PVP (w/v)
[2] = M4N 1 mg/mL in 50% HP-β-CD, 0.5% HPMC
[3] = M4N 1 mg/mL in 50% HP-β-CD, 1.25% PVP (w/v)
[4] = M4N 3.13 mg/mL in 5% HP-β-CD, 12.5% PEG 300 (v/v)
[5] = M4N 4.17 mg/mL in 6.7% HP-β-CD, 16.7% PEG 300 (v/v)
[6] = M4N 6.25 mg/mL in 10% HP-β-CD, 25% PEG 300 (v/v)
Wherever Dissolution After Cool Down is given: key: N represents 'No'; Y represents 'Yes.'.

COc1ccc(C[C@@H](C)[C@@H](C)Cc2ccc(OC)c(OC)c2)cc1OC [Formulation M4N, meso-1,4-bis(3,4-dimethoxyphenyl)-2,3-dimethylbutane]
Dissolution After Rotation (M4N 1 mg/mL in 1.50% β-CD): N | Dissolution After Heating at X° C. (M4N 1 mg/mL in 1.50% β-CD, 90°): N at 90° | Dissolution After Rotation (M4N 1 mg/mL in 2% MC (Low viscosity)): N | Dissolution After Rotation (M4N 1 mg/mL in 2.3% HPMC): N | Dissolution After Heating (M4N 1 mg/mL in 2.3% HPMC): N at 90 °C | Dissolution After Rotation (M4N 1 mg/mL in 5% EC in EtOH): Y | Dissolution After Rotation (M4N 1 mg/mL in 5% γ-CD): N | Dissolution After Heating at X° C. (M4N 1 mg/mL in 5% γ-CD, 90°): N at 90° | Dissolution After Rotation (M4N 1 mg/mL in 15% α-CD): N | Dissolution After Heating at X° C. (M4N 1 mg/mL in 15% α-CD, 90°): N at 90° | Dissolution After Cool Down (M4N 1 mg/mL in 20% HP-β-CD): Y | Dissolution After Rotation (M4N 1 mg/mL in 20% HP-β-CD): N | Dissolution After Rotation (M4N 1 mg/mL in 20% HP-β-CD in saline): N | Dissolution After Heating at X° C. (M4N 1 mg/mL in 20% HP-β-CD, 90°): Y at 90° | Dissolution After Cool Down (M4N 1 mg/mL in 30% HP-β-CD): Y | Dissolution After Rotation (M4N 1 mg/mL in 30% HP-β-CD): N | Dissolution After Heating at X° C. (M4N 1 mg/mL in 30% HP-β-CD, 90°): Y at 90° | Dissolution After Cool Down (M4N 1 mg/mL in 40% HP-β-CD): Y | Dissolution After Rotation (M4N 1 mg/mL in 40% HP-β-CD): N | Dissolution After Heating at X° C. [1]: N | Dissolution After Rotation [1]: N | Dissolution After Rotation (M4N 1 mg/mL in 40% HP-β-CD, 2.5% PG (v/v)): N | Dissolution After Heating at X° C. (M4N 1 mg/mL in 40% HP-β-CD, 2.5% PG (v/v), 80°): N at 80° | Dissolution After Heating at X° C. (M4N 1 mg/mL in 40% HP-β-CD, 80°): Y at 80° | Dissolution After Cool Down (M4N 1 mg/mL in 50% HP-β-CD): Y | Dissolution After Rotation (M4N 1 mg/mL in 50% HP-β-CD): N | Dissolution After Rotation (M4N 1 mg/mL in 50% HP-β-CD, 0.5% CMC): Suspension | Dissolution After Cool-Down [2]: Y | Dissolution After Rotation [2]: N | Dissolution After Rotation (M4N 1 mg/mL in 50% HP-β-CD, 0.5% HPMC, other experiment, no heat): Suspension | Dissolution After Cool Down [3]: Y | Dissolution After Rotation [3]: N | Dissolution After Heating at X° C. (M4N 1 mg/mL in 50% HP-β-CD, 1.25% PVP (w/v), 90°): Y at 90° | Dissolution After Heating at X° C. (M4N 1 mg/mL in 50% HP-β-CD, 90°): Y at 90° | Dissolution After Cool-Down (M4N 1 mg/mL in Corn Oil): Y | Dissolution After Cool Down [4]: Y | Dissolution After Rotation [4]: N | Dissolution After Heating at X° C. (M4N 3.13 mg/mL in 5% HP-β-CD, 12.5% PEG 300 (v/v), 60°): Y at 60° | Dissolution After Cool Down [5]: Y | Dissolution After Rotation [5]: N | Dissolution After Heating at X° C. (M4N 4.17 mg/mL in 6.7% HP-β-CD, 16.7% PEG 300 (v/v), 60°): Y at 60° | Dissolution After Cool Down [6]: Y | Dissolution After Rotation [6]: N | Dissolution After Heating at X° C. (M4N 6.25 mg/mL in 10% HP-β-CD, 25% PEG 300 (v/v), 60°): Y at 60° | Dissolution After Rotation (M4N 10 mg/mL in 1% HPMC): suspension | Dissolution After Rotation (M4N 10 mg/mL in 1.50% β-CD): N | Dissolution After Heating at X° C. (M4N 10 mg/mL in 1.50% β-CD, 90°): N at 90° | Dissolution After Rotation (M4N 10 mg/mL in 2.3% HPMC): N | Dissolution After Heating (M4N 10 mg/mL in 2.3% HPMC): N at 90 °C | Dissolution After Cool-Down (M4N 10 mg/mL in 5% EC in EtOH): Y | Dissolution After Rotation (M4N 10 mg/mL in 5% EC in EtOH): N | Dissolution After Rotation (M4N 10 mg/mL in 15% α-CD): N | Dissolution After Heating at X° C. (M4N 10 mg/mL in 15% α-CD, 90°): N at 90° | Dissolution After Rotation (M4N 10 mg/mL in 20% HP-β-CD): N | Dissolution After Rotation (M4N 10 mg/mL in 20% HP-β-CD in saline): N | Dissolution After Heating at X° C. (M4N 10 mg/mL in 20% HP-β-CD, 90°): N at 90° | Dissolution After Cool Down (M4N 10 mg/mL in 30% HP-β-CD): Y | Dissolution After Rotation (M4N 10 mg/mL in 30% HP-β-CD): N | Dissolution After Heating at X° C. (M4N 10 mg/mL in 30% HP-β-CD, 90°): Y at 90°
